According to PubChem BioAssay AID1259407 (Chemical Carcinogenesis Research Information System (CCRIS), 2018):
The source made the active and inactive calls. No rule for the calls is given here.

Test system: CCRIS mutagenicity, Ames/micronucleus/aberration tests
Assay: CCRIS mutagenicity studies
[1] = Test System: AMES SALMONELLA TYPHIMURIUM, Strain/Indicator: TA97, Metabolic Activation: NONE, Method: STANDARD PLATE
[2] = Test System: AMES SALMONELLA TYPHIMURIUM, Strain/Indicator: TA98, Metabolic Activation: NONE, Method: STANDARD PLATE
[3] = Test System: AMES SALMONELLA TYPHIMURIUM, Strain/Indicator: TA100, Metabolic Activation: NONE, Method: STANDARD PLATE
[4] = Test System: AMES SALMONELLA TYPHIMURIUM, Strain/Indicator: TA100, Metabolic Activation: RAT, LIVER, S-9, AROCLOR 1254, Method: STANDARD PLATE
[5] = Test System: AMES SALMONELLA TYPHIMURIUM, Strain/Indicator: TA1535, Metabolic Activation: NONE, Method: STANDARD PLATE

In the case of `[Cl][Cd][Cl]`, the mutagenic call (End Point: IN VITRO MICRONUCLEUS, Test System: CHL/IU CELLS, Metabolic Activation: NONE) was “active; positive”, the mutagenic call (End Point: IN VITRO MICRONUCLEUS, Test System: HAMSTER V79 CELLS, Metabolic Activation: NONE) was “active; positive” and the mutagenic call (End Point: IN VITRO MICRONUCLEUS, Test System: HUMAN PERIPHERAL LYMPHOCYTES, Metabolic Activation: NONE, Method: FISH (CENTROMERIC SIGNAL CONTENT)) was “active; positive”. For the same molecule, the mutagenic call [1] was “inactive; negative”, the mutagenic call (Test System: AMES SALMONELLA TYPHIMURIUM, Strain/Indicator: TA97, Metabolic Activation: RAT, LIVER, S-9, AROCLOR 1254, Method: STANDARD PLATE) was “inactive; negative” and the mutagenic call [2] was “inactive; negative”. The mutagenic call (Test System: AMES SALMONELLA TYPHIMURIUM, Strain/Indicator: TA98, Metabolic Activation: RAT, LIVER, S-9, AROCLOR 1254, Method: STANDARD PLATE) was “inactive; negative”, the mutagenic call (Test System: AMES SALMONELLA TYPHIMURIUM, Strain/Indicator: TA98, Metabolic Activation: S-9, Method: STANDARD PLATE) was “inactive; negative” and the mutagenic call [3] was “inactive; negative”. For the same molecule, the mutagenic call [4] was “inactive; negative”, the mutagenic call [5] was “inactive; negative” and the mutagenic call (Test System: AMES SALMONELLA TYPHIMURIUM, Strain/Indicator: TA1535, Metabolic Activation: S-9, Method: STANDARD PLATE) was “inactive; negative”. For the same molecule, the mutagenic call (Test System: CHINESE HAMSTER V-79, Strain/Indicator: SP5 V-79 (HPRT)/6-THIOGUANINE, Metabolic Activation: NONE, Method: STANDARD PLATE) was “inactive; negative”, the mutagenic call (Test System: CHINESE HAMSTER V-79, Strain/Indicator: SPD8 V-79 (HPRT)/6-THIOGUANINE, Metabolic Activation: NONE, Method: STANDARD PLATE) was “active; positive” and the mutagenic call (Test System: CHINESE HAMSTER V-79 CELLS, Strain/Indicator: V-79 CELLS (HPRT)/6-THIOGUANINE, Metabolic Activation: NONE, Method: PREINCUBATION) was “inactive; negative”. The mutagenic call (Test System: Chinese hamster lung cells, Strain/Indicator: V-79/HPRT/6-Thioguanidine, Metabolic Activation: None, Method: Standard Plate) was “active; positive”, the mutagenic call (Test System: E. COLI, Strain/Indicator: WP2 UVRA, Metabolic Activation: NONE, Method: SPOT TEST) was “active; positive” and the mutagenic call (Test System: E. COLI, Strain/Indicator: WP2 UVRA, Metabolic Activation: NONE, Method: STANDARD PLATE) was “active; positive”. For the same molecule, the mutagenic call (Test System: Rat lymphocytes, Strain/Indicator: Kumin/Male/HPRT/6-Thioguanidine, Metabolic Activation: None, Method: Intraperitoneal injection, blood collection 1, 6, and 12 d later) was “active; positive”, the mutagenic call (Test System: UDS HAMSTER TRACHEAL EPITHELIAL CELLS, Strain/Indicator: THY INCORP (NON-S-PHASE), Metabolic Activation: NONE, Method: AUTORADIOGRAPHY) was “inactive; negative” and the mutagenic call (Test System: UDS RAT TRACHEAL EPITHELIAL CELLS, Strain/Indicator: THY INCORP (NON-S-PHASE), Metabolic Activation: NONE, Method: AUTORADIOGRAPHY) was “active; positive”.

With `Nc1ccc2cc3ccccc3nc2c1` the mutagenic call (Test System: AMES SALMONELLA TYPHIMURIUM, Strain/Indicator: TA1535, Metabolic Activation: NONE, Method: PREINCUBATION) was “inactive; negative”, the mutagenic call (Test System: AMES SALMONELLA TYPHIMURIUM, Strain/Indicator: TA1535, Metabolic Activation: RAT, LIVER, S-9, TETRACHLOROBIPHENYL, Method: PREINCUBATION) was “active; positive” and the mutagenic call (Test System: AMES SALMONELLA TYPHIMURIUM, Strain/Indicator: TA1537, Metabolic Activation: NONE, Method: PREINCUBATION) was “active; positive”. For the same molecule, the mutagenic call (Test System: AMES SALMONELLA TYPHIMURIUM, Strain/Indicator: TA1537, Metabolic Activation: RAT, LIVER, S-9, TETRACHLOROBIPHENYL, Method: PREINCUBATION) was “active; positive”, the mutagenic call (Test System: AMES SALMONELLA TYPHIMURIUM, Strain/Indicator: TA1538, Metabolic Activation: NONE, Method: PREINCUBATION) was “active; positive” and the mutagenic call (Test System: AMES SALMONELLA TYPHIMURIUM, Strain/Indicator: TA1538, Metabolic Activation: RAT, LIVER, S-9, TETRACHLOROBIPHENYL, Method: PREINCUBATION) was “active; positive”. For the same molecule, the mutagenic call (Test System: AMES SALMONELLA TYPHIMURIUM, Strain/Indicator: TA1975, Metabolic Activation: RAT, LIVER, S-9, TETRACHLOROBIPHENYL, Method: PREINCUBATION) was “inactive; negative”, the mutagenic call (Test System: AMES SALMONELLA TYPHIMURIUM, Strain/Indicator: TA1977, Metabolic Activation: NONE, Method: PREINCUBATION) was “active; positive” and the mutagenic call (Test System: AMES SALMONELLA TYPHIMURIUM, Strain/Indicator: TA1977, Metabolic Activation: RAT, LIVER, S-9, TETRACHLOROBIPHENYL, Method: PREINCUBATION) was “active; positive”. The mutagenic call (Test System: AMES SALMONELLA TYPHIMURIUM, Strain/Indicator: TA1978, Metabolic Activation: RAT, LIVER, S-9, TETRACHLOROBIPHENYL, Method: PREINCUBATION) was “active; positive”.

In the case of `CC1C(C)(C)C2=C(C(=O)CCC2)C1(C)C` (centres undefined), the mutagenic call [1] was “inactive; negative”, the mutagenic call (Test System: AMES SALMONELLA TYPHIMURIUM, Strain/Indicator: TA97, Metabolic Activation: RAT LIVER S-9, AROCLOR 1254, Method: STANDARD PLATE) was “inactive; negative” and the mutagenic call [2] was “inactive; negative”. For the same molecule, the mutagenic call (Test System: AMES SALMONELLA TYPHIMURIUM, Strain/Indicator: TA98, Metabolic Activation: RAT LIVER S-9, AROCLOR 1254, Method: STANDARD PLATE) was “inactive; negative”, the mutagenic call [3] was “inactive; negative” and the mutagenic call (Test System: AMES SALMONELLA TYPHIMURIUM, Strain/Indicator: TA100, Metabolic Activation: RAT LIVER S-9, AROCLOR 1254, Method: STANDARD PLATE) was “inactive; negative”. For the same molecule, the mutagenic call (Test System: AMES SALMONELLA TYPHIMURIUM, Strain/Indicator: TA102, Metabolic Activation: NONE, Method: STANDARD PLATE) was “inactive; negative” and the mutagenic call (Test System: AMES SALMONELLA TYPHIMURIUM, Strain/Indicator: TA102, Metabolic Activation: RAT LIVER S-9, AROCLOR 1254, Method: STANDARD PLATE) was “inactive; negative”.

In the case of `C=C(C)C1CCC2(C)OC2C1` (centres undefined), the mutagenic call [3] was “inactive; negative”, the mutagenic call [4] was “inactive; negative” and the mutagenic call [5] was “inactive; negative”. For the same molecule, the mutagenic call (Test System: AMES SALMONELLA TYPHIMURIUM, Strain/Indicator: TA1535, Metabolic Activation: RAT, LIVER, S-9, AROCLOR 1254, Method: STANDARD PLATE) was “inactive; negative” and the mutagenic call (Test System: UDS RAT HEPATOCYTES, Strain/Indicator: THY INCORP, Metabolic Activation: NONE) was “inactive; negative”.

`CC(C)(Cl)OC(C)(C)Cl` was tested, and the mutagenic call (Test System: AMES SALMONELLA TYPHIMURIUM, Strain/Indicator: TA100, Metabolic Activation: RAT, LIVER, S-9, AROCLOR 1254, Method: DESICCATOR) was “active; positive”.

With `CNc1ccc(O)c2c1C(=O)c1c(O)ccc(NC)c1C2=O` the mutagenic call (Test System: Ames Salmonella typhimurium, Strain/Indicator: TA98, Metabolic Activation: None, Method: Preincubation) was “active; positive”, the mutagenic call (Test System: Ames Salmonella typhimurium, Strain/Indicator: TA100, Metabolic Activation: None, Method: Preincubation) was “active; positive” and the mutagenic call (Test System: Ames Salmonella typhimurium, Strain/Indicator: TA102, Metabolic Activation: None, Method: Preincubation) was “inactive; negative”. For the same molecule, the mutagenic call (Test System: Ames Salmonella typhimurium, Strain/Indicator: TA1535, Metabolic Activation: None, Method: Preincubation) was “active; positive”.
